Experimental findings from PubChem BioAssay (NCI) are described below.

Test systems include DMS 273 small cell lung; DLD-1 colon; HOP-18 NSCLC; SNB-78 CNS; M19-MEL melanoma; DMS 114 small cell lung; KM20L2 colon; XF 498 CNS; RXF-631 renal.
What all share (assay): NCI-60 cell line screen, 48 h

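Tested at 5 concentrations; 48 h exposure; 96-well plates; endpoints linearly interpolated, else capped at highest concentration. The concentration for full growth arrest is given as TGI.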

In the case of `Clc1ccc(C2=NOC3C4CCC(C4)C23)cc1` (configuration not stated), the TGI in the assay with DMS 273 small cell lung, in the assay on DLD-1 colon, in the assay on HOP-18 NSCLC, in the assay with SNB-78 CNS and in the assay with M19-MEL melanoma was above 100 µM in each case.
Turning to `COc1ccc(-c2nc3c(nc2-c2ccc(OC)cc2)N(C)S(=O)(=O)N=C3N)cc1`, the TGI with DMS 273 small cell lung was above 100 µM; in the assay on DMS 114 small cell lung, 72.7 µM; with KM20L2 colon, above 100 µM; in the assay with DLD-1 colon it was above 100 µM; with HOP-18 NSCLC, above 100 µM; with M19-MEL melanoma, above 100 µM.
As to `O=C1CCC2(c3ccccc3)Nc3ccc(Cl)cc3N12` (configuration not stated), the TGI with DMS 114 small cell lung, in the assay on KM20L2 colon, with DLD-1 colon, with XF 498 CNS, in the assay on RXF-631 renal and in the assay on SNB-78 CNS was above 100 µM throughout. This compound also yielded a TGI with M19-MEL melanoma above 100 µM.
Regarding `O=[N+]([O-])c1ccc(COc2cccc3cccnc23)cc1`, the TGI in the assay on DMS 273 small cell lung is 20.8 µM; in the assay on DMS 114 small cell lung, 6.92 µM; in the assay on KM20L2 colon, above 100 µM; in the assay with DLD-1 colon, 71.2 µM; in the assay with HOP-18 NSCLC, above 100 µM; in the assay on XF 498 CNS, 67.5 µM. The TGI in the assay with RXF-631 renal was 33.3 µM; in the assay with SNB-78 CNS it was above 100 µM; in the assay with M19-MEL melanoma, 38.2 µM.
In the case of `CN=C(NC)N(C)c1nc(=[N+](C)C)ss1`, the TGI in the assay on DMS 273 small cell lung and in the assay with SNB-78 CNS was above 100 µM in each case.
Turning to `COc1ccc2c(c1)CCN1C3=C(CCC3)C(=O)C[C@@H]21`, the TGI in the assay with DMS 273 small cell lung, in the assay on DMS 114 small cell lung, in the assay with KM20L2 colon, in the assay with HOP-18 NSCLC, in the assay with XF 498 CNS and in the assay with SNB-78 CNS was above 100 µM each time. Moreover, the TGI in the assay with M19-MEL melanoma is above 100 µM.
In the case of `COc1cc2cc3c4c(cc(OC)c(OC)c4c2cc1OC)CCN3C(=O)CCC(=O)O`, the TGI in the assay with DMS 273 small cell lung, in the assay with DMS 114 small cell lung, in the assay with KM20L2 colon, in the assay with DLD-1 colon and in the assay with SNB-78 CNS was above 100 µM each time.
As to `COC1=CC(=O)NCCN1`, the TGI in the assay with DMS 273 small cell lung, in the assay with DMS 114 small cell lung, with KM20L2 colon, in the assay with DLD-1 colon, in the assay on HOP-18 NSCLC and in the assay on XF 498 CNS was above 100 µM in each case. In addition, the TGI in the assay with RXF-631 renal, in the assay with SNB-78 CNS and in the assay with M19-MEL melanoma was above 100 µM each time.
Take `COC[C@@H](N=CN1CCc2cc(OC)c(OC)cc2C1)C(C)(C)C`: the TGI with DMS 114 small cell lung, in the assay with KM20L2 colon, in the assay on DLD-1 colon, in the assay on HOP-18 NSCLC, with XF 498 CNS and in the assay with RXF-631 renal was above 100 µM each time. This compound also showed a TGI with M19-MEL melanoma above 100 µM.
In the case of `CCN(CC)CCNC(=O)c1nn(-c2ccc(Cl)cc2)c2c1CCc1cc(OC)ccc1-2`, the TGI in the assay with DMS 273 small cell lung stood at 5.98 µM; with DMS 114 small cell lung, 6.68 µM; in the assay with KM20L2 colon, 3.32 µM; with DLD-1 colon it was 14.2 µM; with HOP-18 NSCLC it was 28.7 µM; with XF 498 CNS it was 17.6 µM. Moreover, the TGI with RXF-631 renal came to 3.16 µM; with SNB-78 CNS, 24.2 µM; with M19-MEL melanoma, 7.11 µM.
For the compound `Cc1cc(C)c(C(=O)/C=C/c2ccccc2)c(C)c1`, the TGI in the assay on DMS 114 small cell lung was 88.3 µM; with KM20L2 colon it was 96.9 µM; in the assay on DLD-1 colon it was 68.9 µM; with HOP-18 NSCLC, above 100 µM; in the assay on XF 498 CNS it was 26.5 µM; in the assay on M19-MEL melanoma, above 100 µM.
Consider `Clc1cccc2c1OCC1C(c3ccccc3)=NN(c3ccccc3)C21` (configuration not stated), for which the TGI in the assay on DMS 273 small cell lung, in the assay on DMS 114 small cell lung, in the assay with KM20L2 colon, in the assay on DLD-1 colon, in the assay on HOP-18 NSCLC and with XF 498 CNS was above 100 µM in each case. The TGI in the assay with RXF-631 renal, in the assay with SNB-78 CNS and in the assay with M19-MEL melanoma was above 100 µM throughout.
Turning to `CCCCc1c2c(nc3c1CC/C(=C\c1ccc([N+](=O)[O-])cc1)C3=O)CCCC2`, the TGI came out at 3.78 µM in the assay on DMS 273 small cell lung; 4.4 µM with DMS 114 small cell lung; 4.01 µM in the assay with KM20L2 colon; 3.42 µM in the assay on DLD-1 colon; 4.38 µM with SNB-78 CNS; 4.59 µM with M19-MEL melanoma.
